Experimental data reported in PubChem BioAssay (NCI).
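Test compounds were applied to cells in 96-well plates for 48 hours at 5 doses. TGI marks complete inhibition of growth.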

What was measured:
Assay in all cases: NCI anticancer screen, dose series, 48 h
IGROV1 ovarian = system: IGROV1 ovarian
SK-OV-3 ovarian = system: SK-OV-3 ovarian
HOP-62 NSCLC = system: HOP-62 NSCLC
COLO 205 colon = system: COLO 205 colon
SF-539 CNS = system: SF-539 CNS
A549 NSCLC = system: A549 NSCLC
SF-268 CNS = system: SF-268 CNS
CAKI-1 renal = system: CAKI-1 renal
SF-295 CNS = system: SF-295 CNS
MALME-3M melanoma = system: MALME-3M melanoma
SW-620 colon = system: SW-620 colon
NCI-H23 lung = system: NCI-H23 lung
SK-MEL-2 melanoma = system: SK-MEL-2 melanoma
786-0 renal = system: 786-0 renal
OVCAR-3 ovarian = system: OVCAR-3 ovarian
CCRF-CEM leukemia = system: CCRF-CEM leukemia
OVCAR-5 ovarian = system: OVCAR-5 ovarian
A498 renal = system: A498 renal
NCI-H460 lung = system: NCI-H460 lung
T-47D breast = system: T-47D breast
SN12C renal = system: SN12C renal
NCI/ADR-RES ovarian = system: NCI/ADR-RES ovarian
UO-31 renal = system: UO-31 renal
PC-3 prostate = system: PC-3 prostate
DU-145 prostate = system: DU-145 prostate
MDA-MB-231 breast = system: MDA-MB-231 breast
UACC-62 melanoma = system: UACC-62 melanoma
BT-549 breast = system: BT-549 breast
NCI-H522 lung = system: NCI-H522 lung
MDA-MB-435 = system: MDA-MB-435
HT29 colon = system: HT29 colon
UACC-257 melanoma = system: UACC-257 melanoma
OVCAR-8 ovarian = system: OVCAR-8 ovarian
SK-MEL-5 melanoma = system: SK-MEL-5 melanoma
MCF7 breast = system: MCF7 breast
NCI-H226 lung = system: NCI-H226 lung
LOX IMVI melanoma = system: LOX IMVI melanoma
EKVX NSCLC = system: EKVX NSCLC
ACHN renal = system: ACHN renal
MDA-N = system: MDA-N
HS 578T breast = system: HS 578T breast
HCC-2998 colon = system: HCC-2998 colon
TK-10 renal = system: TK-10 renal
RXF 393 renal = system: RXF 393 renal
M14 melanoma = system: M14 melanoma
K-562 leukemia = system: K-562 leukemia
U251 CNS = system: U251 CNS
HCT-15 colon = system: HCT-15 colon
SR leukemia = system: SR leukemia
OVCAR-4 ovarian = system: OVCAR-4 ovarian
KM12 colon = system: KM12 colon
SNB-19 CNS = system: SNB-19 CNS
HOP-92 NSCLC = system: HOP-92 NSCLC
MOLT-4 leukemia = system: MOLT-4 leukemia
RPMI-8226 leukemia = system: RPMI-8226 leukemia
HCT-116 colon = system: HCT-116 colon
SNB-75 CNS = system: SNB-75 CNS
SK-MEL-28 melanoma = system: SK-MEL-28 melanoma
HL-60(TB) leukemia = system: HL-60(TB) leukemia

SMILES: Cc1coc2c1C(=O)C(=O)c1c-2ccc2c1CCCC2(C)C
- TGI (IGROV1 ovarian): 29.7 µM
- TGI (SK-OV-3 ovarian): > 100 µM
- TGI (HOP-62 NSCLC): 12.1 µM
- TGI (COLO 205 colon): 22.5 µM
- TGI (SF-539 CNS): 7.59 µM
- TGI (A549 NSCLC): 11.9 µM
- TGI (SF-268 CNS): > 100 µM
- TGI (CAKI-1 renal): 5.15 µM
- TGI (SF-295 CNS): 8.49 µM
- TGI (MALME-3M melanoma): 2.3 µM
- TGI (SW-620 colon): 12.5 µM
- TGI (NCI-H23 lung): 2.8 µM
- TGI (SK-MEL-2 melanoma): 6.94 µM
- TGI (786-0 renal): 8.62 µM
- TGI (OVCAR-3 ovarian): 1.47 µM
- TGI (CCRF-CEM leukemia): > 100 µM
- TGI (OVCAR-5 ovarian): 28.5 µM
- TGI (A498 renal): 25.6 µM
- TGI (NCI-H460 lung): 10.4 µM
- TGI (T-47D breast): > 100 µM
- TGI (SN12C renal): > 30.1 µM
- TGI (NCI/ADR-RES ovarian): > 100 µM
- TGI (UO-31 renal): 14.2 µM
- TGI (PC-3 prostate): > 44.7 µM
- TGI (DU-145 prostate): 9.9 µM
- TGI (MDA-MB-231 breast): > 100 µM
- TGI (UACC-62 melanoma): 3.32 µM
- TGI (BT-549 breast): 9.28 µM
- TGI (NCI-H522 lung): 3.98 µM
- TGI (MDA-MB-435): 2.88 µM
- TGI (HT29 colon): 42.4 µM
- TGI (UACC-257 melanoma): 2.37 µM
- TGI (OVCAR-8 ovarian): > 100 µM
- TGI (SK-MEL-5 melanoma): 1.19 µM
- TGI (MCF7 breast): 5.89 µM
- TGI (NCI-H226 lung): 11.2 µM
- TGI (LOX IMVI melanoma): 1.9 µM
- TGI (EKVX NSCLC): > 100 µM
- TGI (ACHN renal): > 100 µM
- TGI (MDA-N): 2.8 µM
- TGI (HS 578T breast): > 31.4 µM
- TGI (HCC-2998 colon): 21.7 µM
- TGI (TK-10 renal): > 85.8 µM
- TGI (RXF 393 renal): > 100 µM
- TGI (M14 melanoma): 2.46 µM
- TGI (K-562 leukemia): 11.5 µM
- TGI (U251 CNS): > 100 µM
- TGI (HCT-15 colon): 6.4 µM
- TGI (SR leukemia): 7.03 µM
- TGI (OVCAR-4 ovarian): > 100 µM
- TGI (KM12 colon): > 92.3 µM
- TGI (SNB-19 CNS): 22.8 µM
- TGI (HOP-92 NSCLC): > 100 µM
- TGI (MOLT-4 leukemia): > 100 µM
- TGI (RPMI-8226 leukemia): > 33.9 µM
- TGI (HCT-116 colon): 4.27 µM
- TGI (SNB-75 CNS): 16.3 µM
- TGI (SK-MEL-28 melanoma): 7.52 µM

SMILES: OCCCc1cc(O)c2c(c1)C(CO)C(c1ccc(O)c(O)c1)O2 (stereo not drawn)
- TGI (IGROV1 ovarian): > 100 µM
- TGI (SK-OV-3 ovarian): > 100 µM
- TGI (HOP-62 NSCLC): > 100 µM
- TGI (COLO 205 colon): > 100 µM
- TGI (SF-539 CNS): > 100 µM
- TGI (A549 NSCLC): > 100 µM
- TGI (SF-268 CNS): > 100 µM
- TGI (CAKI-1 renal): > 100 µM
- TGI (SF-295 CNS): > 100 µM
- TGI (MALME-3M melanoma): > 100 µM
- TGI (SW-620 colon): > 100 µM
- TGI (NCI-H23 lung): > 100 µM
- TGI (HL-60(TB) leukemia): > 100 µM
- TGI (SK-MEL-2 melanoma): > 100 µM
- TGI (786-0 renal): > 100 µM
- TGI (OVCAR-3 ovarian): > 100 µM
- TGI (CCRF-CEM leukemia): > 100 µM
- TGI (OVCAR-5 ovarian): > 100 µM
- TGI (A498 renal): > 100 µM
- TGI (NCI-H460 lung): > 100 µM
- TGI (T-47D breast): > 100 µM
- TGI (SN12C renal): > 100 µM
- TGI (NCI/ADR-RES ovarian): > 100 µM
- TGI (UO-31 renal): > 100 µM
- TGI (PC-3 prostate): > 100 µM
- TGI (DU-145 prostate): > 100 µM
- TGI (MDA-MB-231 breast): > 100 µM
- TGI (UACC-62 melanoma): > 100 µM
- TGI (BT-549 breast): > 100 µM
- TGI (NCI-H522 lung): > 100 µM
- TGI (MDA-MB-435): > 100 µM
- TGI (HT29 colon): > 100 µM
- TGI (UACC-257 melanoma): > 100 µM
- TGI (OVCAR-8 ovarian): > 100 µM
- TGI (SK-MEL-5 melanoma): > 100 µM
- TGI (MCF7 breast): > 100 µM
- TGI (NCI-H226 lung): > 100 µM
- TGI (LOX IMVI melanoma): > 100 µM
- TGI (EKVX NSCLC): > 100 µM
- TGI (ACHN renal): > 100 µM
- TGI (MDA-N): > 100 µM
- TGI (HS 578T breast): > 100 µM
- TGI (HCC-2998 colon): > 100 µM
- TGI (TK-10 renal): > 100 µM
- TGI (M14 melanoma): > 100 µM
- TGI (K-562 leukemia): > 100 µM
- TGI (U251 CNS): > 100 µM
- TGI (HCT-15 colon): > 100 µM
- TGI (SR leukemia): > 100 µM
- TGI (KM12 colon): > 100 µM
- TGI (SNB-19 CNS): > 100 µM
- TGI (HOP-92 NSCLC): > 100 µM
- TGI (MOLT-4 leukemia): > 100 µM
- TGI (HCT-116 colon): > 100 µM
- TGI (SK-MEL-28 melanoma): > 100 µM
